Data reported in patent US11369665B2, “Anti-inflammatory peptides and composition comprising the same” (GemVax & KAEL Co., Ltd., priority 2012, dated 2022).

Tests used:
HMGB1, TNF-α and COX = assay: Western blot of pro-inflammatory cytokine expression; type: cell-based; details: cells treated with both LPS and PEP-1
Procedure: (§1) Raw 264.7 macrophage cell (KCBL, 40071) from Korea Cell Bank was maintained in Dulbecco's modified Eagle's medium (DMEM; PAA, Austria) containing 10% fetal bovine serum (FBS; GIBCO®), 100 unit/mL of streptomycin, and penicillin (Gibco Laboratories) at 37° C. with 5% CO2. Raw 264.7 cells were seeded into a 96-well plate at a density of 1×10^6 cells/mL and incubated overnight.
(§2) On the following day, the medium was replaced with fresh medium and 5 μg/mL of peptide (obtained as described in Experiment example 1) was added to the cells. After 30 min incubation of cells with the peptide 50 μL of LPS (to a final concentration of 1 μg/mL) was added, and cells were incubated for additional 24 hr. The experimental sample with the induction of inflammatory response was treated with 1 μg/mL mL lipopolysaccharide (LPS; SIGMA-ALDRICH®, USA) and control sample was treated with phosphate buffered saline (PBS; pH 7.2). The supernatant samples from each condition was collected in eppendorf tubes and subjected to further analysis.
Protein expression level was determined by Western blot analysis. […] The membrane was incubated with ECL (enhanced chemiluminoesence) solution ([…]®), exposed to X-ray, and the level of protein expression was analyzed according to the exposure level shown on the X-ray film. […]

cytokines = assay: qRT-PCR of cytokine levels in THP1 cell line; type: cell-based, human; details: PMA-differentiated THP-1, LPS 10 ng/ml and 4 μM peptide, 4 hr, FIG. 3
Procedure: As a Human acute monocytic leukemia cell line, THP-1 monocyte cell line ([…] TYPE CULTURE COLLECTION® (Manassas, Va., USA) was used to reconfirm the effects of PEP 1. Cells were grown at a density of 0.5-7×10^5 cells/mL in RPMI 1640 containing 10% FBS, 0.05 mM 2-mercaptoethanol, 100 U/ml penicillin, 100 μg/mL streptomycin, and maintained at 37° C. under 5% CO2. THP-1 cells were differentiated into macrophages by treating cells with phorbol myristate acetate (PMA) at 100 ng/mL for 24 hr at 37° C. for 24 hr.
Following differentiation into macrophages, THP-1 cells were washed two times using complete RPMI 1640 (5 min/wash). Then, cells were treated for 4 hr. with 10 ng/ml LPS and/or 4 μM peptide RIA in FBS free RPMI 1640.
Total RNA samples were isolated from peptide-treated THP-1 cells by using Trizol (QIAZOL®) reagent and, and cDNA was synthesized by reverse transcriptase PCR using reverse transcription PCR kit from PROMEGA CORPORATION® following manufacturer's protocol.
Then, real-Time qPCR was performed using CFX96 (BIO-RAD®) instrument with SYBR® Green qPCR system. Primers used in the experiments are found in Table 5. The PCR cycling conditions were 95° C. for 10 min for activation of HotStart DNA Taq Polymerase, followed by 45 cycles of 95° C. for 10 sec. […] All samples were measured in triplicate and differences in gene expression were calculated using the 2-cycle threshold method. […]

neural stem cells [1] = assay: Co-treatment amyloid-β and PEP-1: proliferation (BrdU assay); type: cell-based, rat; details: 20 μM amyloid-β protein, co-treated 48 hours
Procedure: (§3) To determine whether PEP 1 has the effect of suppressing the neurotoxicity caused by amyloid-β protein, 20 μM amyloid-β protein and various concentrations of PEP-1 were co-treated for 48 hours. The cell viability and apoptosis were measured using MMT assay, CCK-8 assay, LDH assay and TUNEL assay, and neural stem cell proliferation by BrdU assay.
We also confirmed with BrdU assay that the decreased cell proliferation due to amyloid-β protein was restored when processed with PEP-1 (Refer to FIG. 10).

[2] = system: Ki67, pAKT, PI3K, HSTF-1 and Bcl-2; assay: Western blot of anti-apoptotic proteins in amyloid-β damaged neural stem cells; type: cell-based, rat; details: 20 μM amyloid beta, PEP-1 1, 10 and 50 μM, FIGS. 15A-15F
[3] = system: Bax, GSKβ, Cytochrom-c, caspase-3; assay: Western blot of apoptotic signals in amyloid-β damaged neural stem cells; type: cell-based, rat; details: 20 μM amyloid beta, PEP-1 1, 10 and 50 μM, FIGS. 15D, 15G-15I
neural stem cells [4] = assay: Co-treatment amyloid-β and PEP-1: apoptosis (TUNEL assay); type: cell-based, rat; details: 20 μM amyloid-β protein, 1 to 100 μM of PEP 1
Procedure: as §3
To confirm the degree of neuronal stem cells damage, TUNEL assay was performed. […] (Refer to FIG. 12)

TNF-α = assay: Western blot of expression level, LPS-stimulated cells; type: cell-based; details: LPS 1 μg/ml, PEP 1 5 μg/ml
Procedure: as §1, §2
(§4) Protein expression level was determined by Western blot analysis. Cells grown in PEP-1 containing medium were washed with PBS, treated with 0.05% trypsin-EDTA, and collected by centrifugation. The collected cells were dissolved in an appropriate volume of lysis buffer. Intracellular debris was pelleted by centrifugation, and equal amount of protein from each sample was separated by SDS-polyacrylamide gel electrophoresis. The separated protein was transferred to nitrocellulose membrane (Schleicherand Schuell, Keene, N.H., USA), then was tested for the antibody specific for each protein. The membrane was incubated with ECL (enhanced chemiluminoesence) solution ([…]®), exposed to X-ray, and the level of protein expression was analyzed according to the exposure level shown on the X-ray film.

HMGB1 = assay: as above; type: cell-based; details: LPS 1 μg/ml, PEP 1 5 μg/ml
Procedure: as §1, §2, §4

COX-2 = assay: as above; type: cell-based; details: LPS 1 μg/ml, PEP 1 5 μg/ml
Procedure: as §1, §2, §4

amyloid-β protein = target: T1, amyloid-β protein (Homo sapiens, UniProt P05067); assay: Amyloid-β aggregation; type: biochemical
T1 construct: co-treated with 1 μM amyloid beta protein and PEP 1 (0.1, 1 and 10 μM)
From the text: In addition, we investigated the response of PEP-1 to the amyloid-β aggregation.

T1 sequence (P05067 672-713 limits assumed): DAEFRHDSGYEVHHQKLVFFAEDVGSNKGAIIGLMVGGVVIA

## EARPALLTSRLRFIPK [PEP-1]
HMGB1, TNF-α and COX
  decrease of pro-inflammatory cytokine levels: more than 70%
cytokines
  cytokines involved in the inflammatory responses (qRT-PCR): decreased noticeably
Neural stem cells [1]
  cell proliferation decreased by amyloid-β (BrdU): restored
[2]
  protein expression levels of anti-apoptotic proteins Ki67, pAKT, PI3K, HSTF-1, Bcl-2: increased the protein expression levels
[3]
  protein expression levels of apoptotic signals Bax, GSKβ, Cytochrom-c, caspase-3: decreased the protein expression levels
Neural stem cells [4]
  neuronal stem cell death (TUNEL): decreased
TNF-α
  TNF-α Cytokine Expression Level (band intensity) % of control: 25%
HMGB1
  HMGB1 Cytokine Expression Level (band intensity) % of control: 30%
COX-2
  COX-2 Cytokine Expression Level (band intensity) % of control: 22%
amyloid-β protein; 1 μM amyloid beta protein co-treated with PEP 1 0.1, 1 and 10 μM, FIG. 16A
  aggregation of amyloid-β protein during induction: inhibited
amyloid-β protein; FIG. 16B
  amyloid-β protein already induced for aggregation: underwent degradation
